Measured values published in US12091425B2 (AMGEN INC., priority 2016, dated 2024).
pIC50: −log10 of the molar value.

Tests used:
[1] = tested on: OPM-2 human multiple myeloma cell line; test: Cell Viability Assay (OPM-2 10 FBS); assay type: cell-based; details: Homo sapiens, OPM-2, 16 h, OPM-2 cells, 16 h, CellTiter-Glo
How it was run: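 OPM-2 myeloma cells, 3000/well in medium with 10% FBS, exposed to serially diluted compounds for 16 h at 37° C./5% CO2. Viability read by CellTiter-Glo luminescence; IC50 from 4-parameter logistic fit.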

[2] = target: T1, Mcl-1/Bim interaction, recombinant human Mcl-1 (171-327) (Homo sapiens, UniProt Q07820); test: Cell free Mcl-1: Bim Affinity Assay (Mcl-1 HTRF); assay type: binding; details: TR-FRET, 0.1 nM Mcl-1 (171-327), 0.05 nM biotin-Bim (51-76)
T1 construct: made in house
How it was run: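 Read-out is time-resolved FRET after overnight incubation, using a biotin-labelled peptide from human Bim (51-76) as the binding partner; IC50 was derived from competition curves.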

T1 sequence (Q07820 171-327): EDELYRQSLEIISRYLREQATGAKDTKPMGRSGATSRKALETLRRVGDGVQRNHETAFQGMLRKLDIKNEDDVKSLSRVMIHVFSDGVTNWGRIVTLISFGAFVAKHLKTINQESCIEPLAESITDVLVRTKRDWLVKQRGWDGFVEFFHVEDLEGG

CCN(CC)S(=O)(=O)CCN1CC/C=C/[C@H](O)[C@@H]2CC[C@H]2CN2C[C@@]3(CCCc4cc(Cl)ccc43)COc3ccc(cc32)C(=O)NS1(=O)=O [Example 35, 2-((1S,3′R,6′R,7′S,8′E)-6-chloro-7′-hydroxy-13′,13′-dioxido-15′-oxo-3,4-dihydro-2H,12′H-spiro[naphthalene-1,22′-[20]oxa[13]thia[1,12,14]triazatetracyclo[14.7.2.0^3,6.0^19,24]pentacosa[8,16,18,24]tetraen]-12′-yl)-N,N-diethylethanesulfonamide]
pIC50 [1]: 5.89
pIC50 [2]: 8.81

O=C1NS(=O)(=O)NCC/C=C\[C@H](O)[C@@H]2CC[C@H]2CN2C[C@@]3(CCCc4cc(Cl)ccc43)COc3ccc1cc32 [Example 36, (1S,3′R,6′R,7′S,8′Z)-6-chloro-7′-hydroxy-3,4-dihydro-2H,15′H-spiro[naphthalene-1,22′-[20]oxa[13]thia[1,12,14]triazatetracyclo[14.7.2.0^3,6.0^19,24]pentacosa[8,16,18,24]tetraen]-15′-one 13′,13′-dioxide]
pIC50 [1]: 5.59
pIC50 [2]: 9.27

CS(=O)(=O)CCN1CC/C=C\[C@H](O)[C@@H]2CC[C@H]2CN2C[C@@]3(CCCc4cc(Cl)ccc43)COc3ccc(cc32)C(=O)NS1(=O)=O [Example 37, (1S,3′R,6′R,7′S,8′Z)-6-chloro-7′-hydroxy-12′-(2-(methylsulfonyl)ethyl)-3,4-dihydro-2H,15′H-spiro[naphthalene-1,22′-[20]oxa[13]thia[1,12,14]triazatetracyclo[14.7.2.0^3,6.0^19,24]pentacosa[8,16,18,24]tetraen]-15′-one 13′,13′-dioxide]
pIC50 [1]: 5.59
pIC50 [2]: 9.21

O=C1NS(=O)(=O)N(CC2COC2)CC/C=C/[C@H](O)[C@@H]2CC[C@H]2CN2C[C@@]3(CCCc4cc(Cl)ccc43)COc3ccc1cc32 [Example 40, (1S,3′R,6′R,7′S,8′E)-6-chloro-7′-hydroxy-12′-(3-oxetanylmethyl)-3,4-dihydro-2H,15′H-spiro[naphthalene-1,22′-[20]oxa[13]thia[1,12,14]triazatetracyclo[14.7.2.0^3,6.0^19,24]pentacosa[8,16,18,24]tetraen]-15′-one 13′,13′-dioxide]
pIC50 [1]: 6.01
pIC50 [2]: 9.34

C=CCN1CC/C=C/[C@H](O)[C@@H]2CC[C@H]2CN2C[C@@]3(CCCc4cc(Cl)ccc43)COc3ccc(cc32)C(=O)NS1(=O)=O [Example 42, (1S,3′R,6′R,7′S,8′E)-6-chloro-7′-hydroxy-12′-(2-propen-1-yl)-3,4-dihydro-2H,15′H-spiro[naphthalene-1,22′-[20]oxa[13]thia[1,12,14]triazatetracyclo[14.7.2.0^3,6.0^19,24]pentacosa[8,16,18,24]tetraen]-15′-one 13′,13′-dioxide]
pIC50 [1]: 6.07
pIC50 [2]: 9.24

CCN1CC/C=C/[C@H](OCC(=O)OC)[C@@H]2CC[C@H]2CN2C[C@@]3(CCCc4cc(Cl)ccc43)COc3ccc(cc32)C(=O)NS1(=O)=O [Example 43, methyl(((1S,3′R,6′R,7′S,8′E)-6-chloro-12′-ethyl-13′,13′-dioxido-15′-oxo-3,4-dihydro-2H-spiro[naphthalene-1,22′-[20]oxa[13]thia[1,12,14]triazatetracyclo[14.7.2.0^3,6.0^19,24]pentacosa[8,16,18,24]tetraen]-7′-yl)oxy)acetate]
pIC50 [1]: 6.27
pIC50 [2]: 9.00

COCCO[C@H]1/C=C/CCN(CCOC)S(=O)(=O)NC(=O)c2ccc3c(c2)N(C[C@@H]2CC[C@H]21)C[C@@]1(CCCc2cc(Cl)ccc21)CO3 [Example 48, (1S,3′R,6′R,7′S,8′E)-6-chloro-7′-(2-methoxyethoxy)-12′-(2-methoxyethyl)-3,4-dihydro-2H,15′H-spiro[naphthalene-1,22′-[20]oxa[13]thia[1,12,14]triazatetracyclo[14.7.2.0^3,6.0^19,24]pentacosa[8,16,18,24]tetraen]-15′-one 13′,13′-dioxide]
pIC50 [1]: 6.28
pIC50 [2]: 9.25

C[C@@H]1C/C=C/[C@H](O)[C@@H]2CC[C@H]2CN2C[C@@]3(CCCc4cc(Cl)ccc43)COc3ccc(cc32)C(=O)NS(=O)(=O)N1C[C@H]1CCCO1 [Example 55, (1S,3′R,6′R,7′S,8′E,11R)-6-chloro-7′-hydroxy-11′-methyl-12′-((2R)-tetrahydro-2-furanylmethyl)-3,4-dihydro-2H,15′H-spiro[naphthalene-1,22′-[20]oxa[13]thia[1,12,14]triazatetracyclo[14.7.2.0^3,6.0^19,24]pentacosa[8,16,18,24]tetraen]-15′-one 13′,13′-dioxide]
pIC50 [1]: 5.62
pIC50 [2]: 8.20

CCN1[C@H](C)C/C=C/[C@H](O)[C@@H]2CC[C@H]2CN2C[C@@]3(CCCc4cc(Cl)ccc43)COc3ccc(cc32)C(=O)NS1(=O)=O [Example 59, (1S,3′R,6′R,7′S,8′E,11R)-6-chloro-12′-ethyl-7′-hydroxy-11′-methyl-3,4-dihydro-2H,15′H-spiro[naphthalene-1,22′-[20]oxa[13]thia[1,12,14]triazatetracyclo[14.7.2.0^3,6.0^19,24]pentacosa[8,16,18,24]tetraen]-15′-one 13′,13′-dioxide]
pIC50 [1]: 5.13
pIC50 [2]: 8.37

C[C@H]1C/C=C/[C@H](O)[C@@H]2CC[C@H]2CN2C[C@@]3(CCCc4cc(Cl)ccc43)COc3ccc(cc32)C(=O)NS(=O)(=O)N1CCN1CCOCC1 [Example 66, (1S,3′R,6′R,7′S,8′E,11′S)-6-chloro-7′-hydroxy-11′-methyl-12′-(2-(4-morpholinyl)ethyl)-3,4-dihydro-2H,15′H-spiro[naphthalene-1,22′-[20]oxa[13]thia[1,12,14]triazatetracyclo[14.7.2.0^3,6.0^19,24]pentacosa[8,16,18,24]tetraen]-15′-one 13′,13′-dioxide]
pIC50 [1]: 6.31
pIC50 [2]: 8.64

C[C@H]1C/C=C/[C@H](OCCN2CCOCC2)[C@@H]2CC[C@H]2CN2C[C@@]3(CCCc4cc(Cl)ccc43)COc3ccc(cc32)C(=O)NS(=O)(=O)N1 [Example 67, (1S,3′R,6′R,7′S,8′E,11′S)-6-chloro-11′-methyl-7′-(2-(4-morpholinyl)ethoxy)-3,4-dihydro-2H,15′H-spiro[naphthalene-1,22′-[20]oxa[13]thia[1,12,14]triazatetracyclo[14.7.2.0^3,6.0^19,24]pentacosa[8,16,18,24]tetraen]-15′-one 13′,13′-dioxide]
pIC50 [1]: 6.35
pIC50 [2]: 8.82

COCCO[C@H]1/C=C/C[C@H](C)NS(=O)(=O)NC(=O)c2ccc3c(c2)N(C[C@@H]2CC[C@H]21)C[C@@]1(CCCc2cc(Cl)ccc21)CO3 [Example 68, (1S,3′R,6′R,7′S,8′E,11′S)-6-chloro-7′-(2-methoxyethoxy)-11′-methyl-3,4-dihydro-2H,15′H-spiro[naphthalene-1,22′-[20]oxa[13]thia[1,12,14]triazatetracyclo[14.7.2.0^3,6.0^19,24]pentacosa[8,16,18,24]tetraen]-15′-one 13′,13′-dioxide]
pIC50 [1]: 6.61
pIC50 [2]: 9.44

COC(=O)CCO[C@H]1/C=C/C[C@H](C)NS(=O)(=O)NC(=O)c2ccc3c(c2)N(C[C@@H]2CC[C@H]21)C[C@@]1(CCCc2cc(Cl)ccc21)CO3 [Example 70, methyl 3-(((1S,3′R,6′R,7′S,8′E,11′S)-6-chloro-11′-methyl-13′,13′-dioxido-15′-oxo-3,4-dihydro-2H-spiro [naphthalene-1,22′-[20]oxa[13]thia[1,12,14]triazatetracyclo[14.7.2.0^3,6.0^19,24]pentacosa[8,16,18,24]tetraen]-7′-yl)oxy)propanoate]
pIC50 [1]: 7.35
pIC50 [2]: 8.94
